In this experiment the test system is genotype 1b (Con-1) HCV replicon. Nature of the experiment: HCV replicon luciferase assay. The format is cell-based. As to conditions: 1b replicon, Huh-7 cells, Renilla luciferase, 3 days incubation. The protocol:
The cell lines used to evaluate compounds consist of a human hepatocyte derived cell line (Huh-7) that constitutively expresses a genotype 1b (Con-1) HCV replicon or a genotype 1b (Con-1) HCV replicon with an asparagine replacing the cysteine at amino acid 316, or a genotype 2a (JFH-1) replicon, containing a Renilla luciferase reporter gene. These cells were maintained in Dulbecco's modified Eagle medium (DMEM) containing 10% FBS, 100 U/mL penicillin/streptomycin and 1.0 mg/mL G418.
After 3 days incubation at 37° C., cells were analyzed for Renilla Luciferase activity using the EnduRen substrate (Promega cat #E6485) according to the manufacturer's directions. Briefly, the EnduRen substrate was diluted in DMEM and then added to the plates to a final concentration of 7.5 μM. The plates were incubated for at least 1 h at 37° C. then read on a Viewlux Imager (PerkinElmer) using a luminescence program.
For orientation: A replicon is a self-replicating genome or part of one, used to study replication in cells.

A word on the EC50: it is the midpoint of the concentration-response curve. A low value points to higher potency in that assay.

For `CNC(=O)c1c(-c2ccc(F)cc2)oc2nc(CCC(F)(F)F)c(-c3cccc(C(=O)NC(C)(C)c4ncon4)c3)cc12` [Example 1, 5-(3-((2-(1,2,4-oxadiazol-3-yl)propan-2-yl)carbamoyl)phenyl)-2-(4-fluorophenyl)-N-methyl-6-(3,3,3-trifluoropropyl)furo[2,3-b]pyridine-3-carboxamide], the EC50 (Hepatitis C virus, Huh-7, 72 h) turned out to be 3.02 nM.
On the same count and under the same terms, with `CNC(=O)c1c(-c2ccc(F)cc2)oc2nc(NCC(F)(F)F)c(-c3cccc(C(=O)NC4(c5ncon5)CCC4)c3)cc12` [Example 5, 5-(3-((1-(1,2,4-oxadiazol-3-yl)cyclobutyl)carbamoyl)phenyl)-2-(4-fluorophenyl)-N-methyl-6-((2,2,2-trifluoroethyl)amino)furo[2,3-b]pyridine-3-carboxamide] the figure was 4.96 nM.
The compound `CNC(=O)c1c(-c2ccc(F)cc2)oc2nc(NCC(F)(F)F)c(-c3cccc(C(=O)NC4(c5noc(C)n5)CC4)c3)cc12` [Example 6, 2-(4-fluorophenyl)-N-methyl-5-(3-((1-(5-methyl-1,2,4-oxadiazol-3-yl)cyclopropyl)carbamoyl)phenyl)-6-((2,2,2-trifluoroethyl)amino)furo[2,3-b]pyridine-3-carboxamide] displayed a concentration giving a half-maximal response (EC50) (Hepatitis C virus, Huh-7, 72 h) of 4.76 nM.
The same measure, in the same setting: the figure for `CNC(=O)c1c(-c2ccc(F)cc2)oc2nc(NCC(F)(F)F)c(-c3cccc(C(=O)NC(C)(C)c4nc(C)no4)c3)cc12` [Example 7, 2-(4-fluorophenyl)-N-methyl-5-(3-((2-(3-methyl-1,2,4-oxadiazol-5-yl)propan-2-yl)carbamoyl)phenyl)-6-((2,2,2-trifluoroethyl)amino)furo[2,3-b]pyridine-3-carboxamide] is 3.46 nM.
On the same count and under the same terms, the figure for `CNC(=O)c1c(-c2ccc(F)cc2)oc2nc(NCC(F)(F)F)c(-c3cccc(C(=O)NC4(c5nc(C)no5)CC4)c3)cc12` [Example 8, 2-(4-fluorophenyl)-N-methyl-5-(3-((1-(3-methyl-1,2,4-oxadiazol-5-yl)cyclopropyl)carbamoyl)phenyl)-6-((2,2,2-trifluoroethyl)amino)furo[2,3-b]pyridine-3-carboxamide] is 5.6 nM.
For `CNC(=O)c1c(-c2ccc(F)cc2)oc2nc(CCC(F)(F)F)c(-c3cccc(C(=O)NC(C)(C)c4noc(C)n4)c3)cc12` [Example 10, 2-(4-fluorophenyl)-N-methyl-5-(3-((2-(5-methyl-1,2,4-oxadiazol-3-yl)propan-2-yl)carbamoyl)phenyl)-6-(3,3,3-trifluoropropyl)furo[2,3-b]pyridine-3-carboxamide], the EC50 (Hepatitis C virus, Huh-7, 72 h) turned out to be 3.61 nM.
Turning to `CNC(=O)c1c(-c2ccc(F)cc2)oc2nc(NCC(F)(F)F)c(-c3cccc(C(=O)NC(C)(C)c4noc(C)n4)c3)cc12` [Example 11, 2-(4-fluorophenyl)-N-methyl-5-(3-((2-(5-methyl-1,2,4-oxadiazol-3-yl)propan-2-yl)carbamoyl)phenyl)-6-((2,2,2-trifluoroethyl)amino)furo[2,3-b]pyridine-3-carboxamide], it took 4.96 nM to reach a half-maximal effect (Hepatitis C virus, Huh-7, 72 h) (EC50).
Same read-out and setting: the figure for `CNC(=O)c1c(-c2ccc(F)cc2)oc2nc(NCC(F)(F)F)c(-c3cccc(C(=O)NC(C)(C)c4ncon4)c3)cc12` [Example 12, 5-(3-((2-(1,2,4-oxadiazol-3-yl)propan-2-yl)carbamoyl)phenyl)-2-(4-fluorophenyl)-N-methyl-6-((2,2,2-trifluoroethyl)amino)furo[2,3-b]pyridine-3-carboxamide] is 2.95 nM.
On the same count and under the same terms, with `CNC(=O)c1c(-c2ccc(F)cc2)oc2nc(NCC(F)(F)F)c(-c3ccc(OC)c(C(=O)NC(C)(C)c4ncon4)c3)cc12` [Example 14, 5-(3-((2-(1,2,4-oxadiazol-3-yl)propan-2-yl)carbamoyl)-4-methoxyphenyl)-2-(4-fluorophenyl)-N-methyl-6-((2,2,2-trifluoroethyl)amino)furo[2,3-b]pyridine-3-carboxamide] the figure was 6.67 nM.
`CCC(C)c1nc2oc(-c3ccc(F)cc3)c(C(=O)NC)c2cc1-c1cccc(C(=O)NC(C)(C)c2ncon2)c1` (stereo not shown) [Example 15, 5-(3-((2-(1,2,4-oxadiazol-3-yl)propan-2-yl)carbamoyl)phenyl)-6-(sec-butyl)-2-(4-fluorophenyl)-N-methylfuro[2,3-b]pyridine-3-carboxamide]: the EC50 was determined as 4.98 nM.
In turn, `CCC(C)c1nc2oc(-c3ccc(F)cc3)c(C(=O)NC)c2cc1-c1cccc(C(=O)NC(C)(C)c2ncon2)c1` (stereo not shown) [Example 16, 5-(3-((2-(1,2,4-oxadiazol-3-yl)propan-2-yl)carbamoyl)phenyl)-6-(sec-butyl)-2-(4-fluorophenyl)-N-methylfuro[2,3-b]pyridine-3-carboxamide] registered an EC50 of 20 nM.
Turning to `[2H]C([2H])([2H])Oc1ncc(-c2cc3c(C(=O)NC)c(-c4ccc(F)cc4)oc3nc2NCC(F)(F)F)cc1C(=O)NC(c1ncon1)(C([2H])([2H])[2H])C([2H])([2H])[2H]` [Example 18, 5-[2-(4-fluorophenyl)-3-(methylcarbamoyl)-6-[(2,2,2-trifluoroethyl)amino]furo[2,3-b]pyridin-5-yl]-2-(^2H3)methoxy-N-[2-(1,2,4-oxadiazol-3-yl)(^2H6)propan-2-yl]pyridine-3-carboxamide], a half-maximal response (Hepatitis C virus, Huh-7, 72 h) (EC50) required 4.32 nM.
The same measure, in the same setting: with `[2H]c1nc(C(NC(=O)c2cc(-c3cc4c(C(=O)NC)c(-c5ccc(F)cc5)oc4nc3NCC(F)(F)F)cnc2OC([2H])([2H])[2H])(C([2H])([2H])[2H])C([2H])([2H])[2H])no1` [Example 19, 5-[2-(4-fluorophenyl)-3-(methylcarbamoyl)-6-[(2,2,2-trifluoroethyl)amino]furo[2,3-b]pyridin-5-yl]-2-(^2H3)methoxy-N-{2-[(^2H)-1,2,4-oxadiazol-3-yl](^2H6)propan-2-yl}pyridine-3-carboxamide] the figure was 5.77 nM.
On the same count and under the same terms, with `[2H]C([2H])([2H])Oc1ncc(-c2cc3c(C(=O)NC)c(-c4ccc(F)cc4)oc3nc2OCC(F)(F)F)cc1C(=O)NC(c1ncon1)(C([2H])([2H])[2H])C([2H])([2H])[2H]` [Example 21, 5-[2-(4-fluorophenyl)-3-(methylcarbamoyl)-6-(2,2,2-trifluoroethoxy)furo[2,3-b]pyridin-5-yl]-2-(^2H3)methoxy-N-[2-(1,2,4-oxadiazol-3-yl)(^2H6)propan-2-yl]pyridine-3-carboxamide] the figure was 2.23 nM.
Still for that read-out and setting: with `[2H]C([2H])([2H])Oc1ncc(-c2cc3c(C(=O)NC)c(-c4ccc(F)cc4)oc3nc2OCC(F)(F)F)cc1C(=O)NC(C)(C)c1ncon1` [Example 22, 5-[2-(4-fluorophenyl)-3-(methylcarbamoyl)-6-(2,2,2-trifluoroethoxy)furo[2,3-b]pyridin-5-yl]-2-(^2H3)methoxy-N-[2-(1,2,4-oxadiazol-3-yl)propan-2-yl]pyridine-3-carboxamide] the figure was 1.7 nM; with `[2H]C([2H])([2H])C(NC(=O)c1cc(-c2cc3c(C(=O)NC)c(-c4ccc(F)cc4)oc3nc2NCC(F)(F)F)cnc1OC)(c1ncon1)C([2H])([2H])[2H]` [Example 26, 5-[2-(4-fluorophenyl)-3-(methylcarbamoyl)-6-[(2,2,2-trifluoroethyl)amino]furo[2,3-b]pyridin-5-yl]-2-methoxy-N-[2-(1,2,4-oxadiazol-3-yl)(^2H6)propan-2-yl]pyridine-3-carboxamide], 6.26 nM.
Where the note is “Hepatitis C virus, Huh-7, 72 h”, `[2H]C([2H])([2H])Oc1ncc(-c2cc3c(C(=O)NC)c(-c4ccc(F)cc4)oc3nc2NCC(F)(F)F)cc1C(=O)NC(C)(C)c1ncon1` [Example 27, 5-[2-(4-fluorophenyl)-3-(methylcarbamoyl)-6-[(2,2,2-trifluoroethyl)amino]furo[2,3-b]pyridin-5-yl]-2-(^2H3)methoxy-N-[2-(1,2,4-oxadiazol-3-yl)propan-2-yl]pyridine-3-carboxamide] returned an EC50 of 4.32 nM.
The same measure, in the same setting: with `CNC(=O)c1c(-c2ccc(F)cc2)oc2nc(NCC(F)(F)F)c(-c3cnc(OC)c(C(=O)NC(C)(C)c4ncon4)c3)cc12` [Example 29, 5-[2-(4-fluorophenyl)-3-(methylcarbamoyl)-6-[(2,2,2-trifluoroethyl)amino]furo[2,3-b]pyridin-5-yl]-2-methoxy-N-[2-(1,2,4-oxadiazol-3-yl)propan-2-yl]pyridine-3-carboxamide] the figure was 8.01 nM; with `[2H]C([2H])([2H])Oc1ncc(-c2cc3c(C(=O)NC)c(-c4ccc(F)cc4)oc3nc2CCC(F)(F)F)cc1C(=O)NC(C)(c1ncon1)C1CC1` (stereo not shown) [Example 30, N-[1-cyclopropyl-1-(1,2,4-oxadiazol-3-yl)ethyl]-5-[2-(4-fluorophenyl)-3-(methylcarbamoyl)-6-(3,3,3-trifluoropropyl)furo[2,3-b]pyridin-5-yl]-2-(^2H3)methoxypyridine-3-carboxamide], 4.35 nM.
